Legend:
[1] = test system: HCT116 cells; assay: HCT116 cell proliferation MTT assay; format: cell-based; details: HCT-116; HCT116 human colon carcinoma cells, MTT assay after 5 days (120 h) incubation, compound 3 uM to 0.15 nM
Method: HCT116 cells (human colon carcinoma cell line) were cultivated in RPMI 1640, 2.5% FCS, 2 mM Glutamine, 100 u/ml Penicillin, 100 ug/ml Streptomycin. For the assay the cells were seeded in 384 well plates, 1000 cells per well, in the same medium
The next day compounds (dissolved 10 mM in DMSO) were added in various concentrations ranging from 3 uM to 0.15 nM. After 5 days the MTT assay was done mainly according to the instructions of the manufacturer (Cell proliferation kit I, MTT, from Roche Molecular Biochemicals). In brief: MTT labeling reagent was added to a final concentration of 0.5 mg/ml, added and incubated for 4 hrs at 37° C., 5% CO2. During this incubation time purple formazan crystals are formed. After addition of the solubilization solution (20% SDS in 0.02 M HCl) the plates were incubated overnight at 37° C., 5% CO2. After careful mixing plates were measured in Victor 2 (scanning multiwell spectrophotometer, Wallac) at 550 nm.
A decrease in number of living cells results in a decrease in the total metabolic activity in the sample. The decrease directly correlates to the amount of purple color resulting from the solubilization of the purple formazan crystals.
Materials: • HCT116 1000 cells in 60 ul per well of 384 well plate (Greiner) • Medium: RPMI 1640, 2.5% FCS, glutamine, pen/strep. • Incubate 1 day at 37° C.
Induction: • Dilution of compound in DMSO: 3 ul 10 mM+27 ul DMSO, dilute 1:3 • Add 2 ul of compound dilution row to 95 ul of medium • Add 10 ul of compound dilution to 60 ul medium in test plate results in 0.3% DMSO per well • Incubate 120 h (5 days) at 37° C., 5% CO2
Analysis: • Add 7 ul MTT ([…]), incubate 4 h at 37° C. • Add 30 ul lysis buffer (20% SDS, 0.04N HCl) per well • Incubate overnight at 37° C.
Measurement: • Victor 2 (scanning multiwell spectrophotometer, Wallac), at 550 nm • Determination of IC50 was done using XL-fit.

FC(F)(F)Oc1ccc(C=Cc2nc(CNc3ccc(CCCCn4ccnn4)cc3)co2)cc1 [Example 1, [4-(4-[1,2,3]Triazol-1-yl-butyl)-phenyl]-{2-[2-(4-trifluoromethoxy-phenyl)-vinyl]-oxazol-4-ylmethyl}-amine]
melting point: 103 to 105 °C | IC50 [1]: < 20 nM

FC(F)(F)c1ccc(C=Cc2nc(CNc3ccc(CCCCn4ccnn4)cc3)co2)cc1 [Example 2, [4-(4-[1,2,3]Triazol-1-yl-butyl)-phenyl]-{2-[2-(4-trifluoromethyl-phenyl)-vinyl]-oxazol-4-ylmethyl}-amine]
melting point: 113 to 115 °C | IC50 [1]: < 20 nM

CN(Cc1coc(C=Cc2ccc(C(F)(F)F)cc2)n1)c1ccc(CCCCn2ccnn2)cc1 [Example 3, Methyl-[4-(4-[1,2,3]triazol-1-yl-butyl)-phenyl]-{2-[2-(4-trifluoromethyl-phenyl)-vinyl]-oxazol-4-ylmethyl}-amine]
melting point: 112 to 114 °C | IC50 [1]: < 20 nM

FC(F)Oc1ccc(C=Cc2nc(CNc3ccc(CCCCn4ccnn4)cc3)co2)cc1 [Example 4, {2-[2-(4-Difluoromethoxy-phenyl)-vinyl]-oxazol-4-ylmethyl}-[4-(4-[1,2,3]triazol-1-yl-butyl)-phenyl]-amine]
melting point: 101 to 102 °C | IC50 [1]: > 40 nM

Clc1ccc(C=Cc2nc(CNc3ccc(CCCCn4ccnn4)cc3)co2)cc1 [Example 5, {2-[2-(4-Chloro-phenyl)-vinyl]-oxazol-4-ylmethyl}-[4-(4-[1,2,3]triazol-1-yl-butyl)-phenyl]-amine]
melting point: 120 to 122 °C | IC50 [1]: < 20 nM

C(=Cc1nc(CNc2ccc(CCCCn3ccnn3)cc2)co1)c1ccc2c(c1)OCO2 [Example 6, [2-(2-Benzo[1,3]dioxol-5-yl-vinyl)-oxazol-4-ylmethyl]-[4-(4-[1,2,3]triazol-1-yl-butyl)-phenyl]-amine]
melting point: 130 to 131 °C | IC50 [1]: > 40 nM

FC1(F)Oc2ccc(C=Cc3nc(CNc4ccc(CCCCn5ccnn5)cc4)co3)cc2O1 [Example 7, {2-[2-(2,2-Difluoro-benzo[1,3]dioxol-5-yl)-vinyl]-oxazol-4-ylmethyl}-[4-(4-[1,2,3]triazol-1-yl-butyl)-phenyl]-amine]
melting point: 102 to 104 °C | IC50 [1]: > 40 nM

FC(F)(F)Sc1ccc(C=Cc2nc(CNc3ccc(CCCCn4ccnn4)cc3)co2)cc1 [Example 8, [4-(4-[1,2,3]Triazol-1-yl-butyl)-phenyl]-{2-[2-(4-trifluoromethylsulfanyl-phenyl)-vinyl]-oxazol-4-ylmethyl}-amine]
melting point: 76 to 78 °C | IC50 [1]: < 20 nM

FC(F)(F)c1ccc(C=Cc2nc(CNc3ccc(OCCCn4ccnn4)cc3)co2)cc1 [Example 9, [4-(3-[1,2,3]Triazol-1-yl-propoxy)-phenyl]-{2-[2-(4-trifluoromethyl-phenyl)-vinyl]-oxazol-4-ylmethyl}-amine]
melting point: 134 to 136 °C | IC50 [1]: < 20 nM

CN(Cc1coc(C=Cc2ccc3c(c2)OCO3)n1)c1ccc(CCCCn2ccnn2)cc1 [Example 13, [2-(2-Benzo[1,3]dioxol-5-yl-vinyl)-oxazol-4-ylmethyl]-methyl-[4-(4-[1,2,3]triazol-1-yl-butyl)-phenyl]-amine]
IC50 [1]: > 40 nM

CN(Cc1coc(C=Cc2ccc(SC(F)(F)F)cc2)n1)c1ccc(CCCCn2ccnn2)cc1 [Example 14, Methyl-[4-(4-[1,2,3]triazol-1-yl-butyl)-phenyl]-{2-[2-(4-trifluoromethylsulfanyl-phenyl)-vinyl]-oxazol-4-ylmethyl}-amine]
IC50 [1]: < 20 nM

CN(Cc1coc(C=Cc2ccc(Cl)cc2)n1)c1ccc(CCCCn2ccnn2)cc1 [Example 15, {2-[2-(4-Chloro-phenyl)-vinyl]-oxazol-4-ylmethyl}-methyl-[4-(4-[1,2,3]triazol-1-yl-butyl)-phenyl]-amine]
IC50 [1]: > 40 nM

FC(F)(F)Oc1ccc(C=Cc2nc(CNc3ccc(OCCCn4ccnn4)cc3)co2)cc1 [Example 16, [4-(3-[1,2,3]Triazol-1-yl-propoxy)-phenyl]-{2-[2-(4-trifluoromethoxy-phenyl)-vinyl]-oxazol-4-ylmethyl}-amine]
IC50 [1]: > 40 nM

FC(F)(F)Sc1ccc(C=Cc2nc(CNc3ccc(OCCCn4ccnn4)cc3)co2)cc1 [Example 17, [4-(3-[1,2,3]Triazol-1-yl-propoxy)-phenyl]-{2-[2-(4-trifluoromethylsulfanyl-phenyl)-vinyl]-oxazol-4-ylmethyl}-amine]
IC50 [1]: > 40 nM

Clc1ccc(C=Cc2nc(CNc3ccc(OCCCn4ccnn4)cc3)co2)cc1 [Example 18, {2-[2-(4-Chloro-phenyl)-vinyl]-oxazol-4-ylmethyl}-[4-(3-[1,2,3]triazol-1-yl-propoxy)-phenyl]-amine]
IC50 [1]: > 40 nM

O=C(Nc1ccc(OCCCn2ccnn2)cc1)c1coc(C=Cc2ccc(C(F)(F)F)cc2)n1 [Example 19, 2-[2-(4-Trifluoromethyl-phenyl)-vinyl]-oxazole-4-carboxylic acid [4-(3-[1,2,3]triazol-1-yl-propoxy)-phenyl]-amide]
IC50 [1]: > 40 nM

O=C(Nc1ccc(OCCCn2ccnn2)cc1)c1coc(C=Cc2ccc(OC(F)(F)F)cc2)n1 [Example 20, 2-[2-(4-Trifluoromethoxy-phenyl)-vinyl]-oxazole-4-carboxylic acid [4-(3-[1,2,3]triazol-1-yl-propoxy)-phenyl]-amide]
IC50 [1]: > 40 nM

O=C(Nc1ccc(CCCCn2ccnn2)cc1)c1coc(C=Cc2ccc(OC(F)(F)F)cc2)n1 [Example 21, 2-[2-(4-Trifluoromethoxy-phenyl)-vinyl]-oxazole-4-carboxylic acid [4-(4-[1,2,3]triazol-1-yl-butyl)-phenyl]-amide]
IC50 [1]: > 40 nM

CN(C(=O)c1coc(C=Cc2ccc(OC(F)(F)F)cc2)n1)c1ccc(CCCCn2ccnn2)cc1 [Example 22, 2-[2-(4-Trifluoromethoxy-phenyl)-vinyl]-oxazole-4-carboxylic acid methyl-[4-(4-[1,2,3]triazol-1-yl-butyl)-phenyl]-amide]
IC50 [1]: > 40 nM

CN(C(=O)c1coc(C=Cc2ccc(OC(F)(F)F)cc2)n1)c1ccc(OCCCn2ccnn2)cc1 [Example 23, 2-[2-(4-Trifluoromethoxy-phenyl)-vinyl]-oxazole-4-carboxylic acid methyl-[4-(3-[1,2,3]triazol-1-yl-propoxy)-phenyl]-amide]
IC50 [1]: > 40 nM

FC(F)(F)c1cccc(C=Cc2nc(CNc3ccc(CCCCn4ccnn4)cc3)co2)c1 [Example 26, [4-(4-[1,2,3]Triazol-1-yl-butyl)-phenyl]-{2-[2-(3-trifluoromethyl-phenyl)-vinyl]-oxazol-4-ylmethyl}-amine]
IC50 [1]: > 40 nM

O=C(Nc1ccc(CCCCn2ccnn2)cc1)c1coc(C=Cc2ccc3c(c2)OC(F)(F)O3)n1 [Example 29, 2-[2-(2,2-Difluoro-benzo [1,3]dioxol-5-yl)-vinyl]-oxazole-4-carboxylic acid [4-(4-[1,2,3]triazol-1-yl-butyl)-phenyl]-amide]
IC50 [1]: < 20 nM

O=C(Nc1ccc(CCCCn2ccnn2)cc1)c1coc(C=Cc2ccc(OC(F)F)cc2)n1 [Example 31, 2-[2-(4-Difluoromethoxy-phenyl)-vinyl]-oxazole-4-carboxylic acid-[4-(4-[1,2,3]triazol-1-yl-butyl)-phenyl]-amide]
IC50 [1]: < 20 nM

CN(C(=O)c1coc(C=Cc2ccc(OC(F)F)cc2)n1)c1ccc(CCCCn2ccnn2)cc1 [Example 32, 2-[2-(4-Difluoromethoxy-phenyl)-vinyl]-oxazole-4-carboxylic acid methyl-[4-(4-[1,2,3]-triazol-1-yl-butyl)-phenyl]-amide]
IC50 [1]: > 40 nM

Fc1ccc(C=Cc2nc(CNc3ccc(CCCCn4ccnn4)cc3)co2)c(F)c1 [Example 34, {2-[2-(2,4-Difluoro-phenyl)-vinyl]-oxazol-4-ylmethyl}-[4-(4-[1,2,3]triazol-1-yl-butyl)-phenyl]-amine]
IC50 [1]: < 20 nM

Fc1cc(Cl)ccc1C=Cc1nc(CNc2ccc(CCCCn3ccnn3)cc2)co1 [Example 35, {2-[2-(4-Chloro-2-fluoro-phenyl)-vinyl]-oxazol-4-ylmethyl}-[4-(4-[1,2,3]triazol-1-yl-butyl)-phenyl]-amine]
IC50 [1]: > 40 nM

FC(F)(F)Oc1ccc(C=Cc2nc(CNc3ccc(COCCn4ccnn4)cc3)co2)cc1 [Example 36, [4-(2-[1,2,3]Triazol-1-yl-ethoxymethyl)-phenyl]-{2-[2-(4-trifluoromethoxy-phenyl)-vinyl]-oxazol-4-ylmethyl}-amine]
IC50 [1]: < 20 nM

FC(F)(F)c1ccc(C=Cc2nc(CNc3ccc(COCCn4ccnn4)cc3)co2)cc1 [Example 37, [4-(2-[1,2,3]Triazol-1-yl-ethoxymethyl)-phenyl]-{2-[2-(4-trifluoromethyl-phenyl)-vinyl]-oxazol-4-ylmethyl}-amine]
IC50 [1]: 20 to 40 nM
